In paper PMC12881670, “Investigation into ligand selectivity and bias at the formyl peptide receptor family” (The Journal of Pharmacology and Experimental Therapeutics, 2025):
“Also recorded” adds a separate entry of the source. Where a SMILES comes first, the peptide text is derived from it. Where no end group is shown, it is not given here. The star is where a group is joined. For = O=C*

What was measured:
Format in all cases: cell-based
Hs_FPR2 [1] = target: T1, Hs_FPR2 (Homo sapiens, UniProt P25090); assay: BRET receptor-RLuc8 interaction with Venus-mGsi; settings: for Log EC50 (M): log of EC50, HEK293 transient, 10 min; for Log EC50 (M) / Emax (%): mGsi BRET, mean, ND = no interaction detected; for Emax (%): % of response to 1 μM WKYMVm
T1 construct: expressed in transfected cells
T1 sequence (P25090 1-351): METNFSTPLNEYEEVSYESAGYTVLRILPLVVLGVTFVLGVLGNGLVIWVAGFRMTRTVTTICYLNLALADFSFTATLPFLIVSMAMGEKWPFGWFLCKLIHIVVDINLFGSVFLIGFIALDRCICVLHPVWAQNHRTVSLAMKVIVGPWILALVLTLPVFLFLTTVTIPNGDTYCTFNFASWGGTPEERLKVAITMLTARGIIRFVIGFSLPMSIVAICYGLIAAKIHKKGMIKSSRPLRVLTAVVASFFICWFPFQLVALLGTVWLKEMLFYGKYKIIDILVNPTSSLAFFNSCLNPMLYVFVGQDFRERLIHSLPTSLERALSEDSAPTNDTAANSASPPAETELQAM
In short: (§1)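 Cells were transiently cotransfected with C-terminal RLuc8-tagged FPR and Venus-mGsi or YFP-Arrestin 3 (1:4), then replated at 24 h and cultured a further 24–48 h. After 30 min in HBSS, coelenterazine h (5 μM final) was added 5 min before compound, with a 10 min incubation at 37 °C. Background-subtracted acceptor/donor ratio (N-BRET) was fitted by 3-parameter log(agonist) regression.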

Hs_FPR1 = target: T2, Hs_FPR1 (Homo sapiens, UniProt P21462); assay: ERK1/2 phosphorylation by Western blotting; design: Emax: dose or concentration left out as unconfirmed; settings: for Log EC50 (M) / EC50: log of EC50, phosphorylation of ERK1/2, HEK293 stable cells; for Log EC50 (M) / Emax (%) / EC50: mean, ND = no pERK signal detected; for Emax (%): phospho-ERK, % of 1 μM WKYMVm
T2 construct: expressed in transfected cells
T2 sequence (P21462 1-350): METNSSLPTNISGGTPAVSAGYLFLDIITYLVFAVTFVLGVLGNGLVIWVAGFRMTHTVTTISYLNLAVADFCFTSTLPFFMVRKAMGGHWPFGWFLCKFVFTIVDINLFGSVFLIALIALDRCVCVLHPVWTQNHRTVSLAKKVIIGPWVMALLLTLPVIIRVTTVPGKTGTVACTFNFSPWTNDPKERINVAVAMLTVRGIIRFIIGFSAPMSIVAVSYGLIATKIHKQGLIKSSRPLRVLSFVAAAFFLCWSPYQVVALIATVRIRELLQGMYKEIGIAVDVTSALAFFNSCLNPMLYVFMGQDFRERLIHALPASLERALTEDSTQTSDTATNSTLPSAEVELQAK

Hs_FPR2 [2] = target: T1, Hs_FPR2; assay: ERK1/2 phosphorylation by Western blotting; design: Emax: dose or concentration left out as unconfirmed; settings: for Log EC50 (M) / EC50: log of EC50, phosphorylation of ERK1/2, HEK293 stable cells; for Log EC50 (M) / Emax (%) / EC50: mean, ND = no pERK signal detected; for Emax (%): phospho-ERK, % of 1 μM WKYMVm
Mm_Fpr2 [3] = target: T3, Mm_Fpr2 (Mus musculus, UniProt O88536); assay: ERK1/2 phosphorylation by Western blotting; design: Emax: dose or concentration left out as unconfirmed; settings: for Log EC50 (M) / EC50: log of EC50, phosphorylation of ERK1/2, HEK293 stable cells; for Log EC50 (M) / Emax (%) / EC50: mean, ND = no pERK signal detected; for Emax (%): phospho-ERK, % of 1 μM WKYMVm
T3 construct: expressed in transfected cells
T3 sequence (O88536 1-351): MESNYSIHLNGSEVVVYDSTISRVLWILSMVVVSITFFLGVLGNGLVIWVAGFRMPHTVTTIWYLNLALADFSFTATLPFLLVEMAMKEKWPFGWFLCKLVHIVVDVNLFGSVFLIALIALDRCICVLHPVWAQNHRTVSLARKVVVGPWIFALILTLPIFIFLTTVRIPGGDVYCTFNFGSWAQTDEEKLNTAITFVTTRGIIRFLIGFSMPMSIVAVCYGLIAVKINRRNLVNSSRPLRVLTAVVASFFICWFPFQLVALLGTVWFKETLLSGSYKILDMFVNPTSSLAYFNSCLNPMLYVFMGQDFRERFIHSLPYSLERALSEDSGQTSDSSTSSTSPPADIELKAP

Hs_FPR2 [4] = target: T1, Hs_FPR2; assay: BRET receptor-RLuc8 interaction with Arrestin 3-YFP; settings: for Emax (%) / Log EC50 (M): Arrestin 3 BRET, mean, ND = no interaction detected; for Emax (%): % of response to 1 μM WKYMVm; for Log EC50 (M): log of EC50, HEK293 transient, 10 min
In short: as §1

Mm_Fpr1 = target: T4, Mm_Fpr1 (Mus musculus, UniProt P33766); assay: Internalization of FLAG-tagged receptors by flow cytometry; design: Emax: dose or concentration left out as unconfirmed; settings: for agonist-induced internalization (words): Mm_Fpr1, 30 min, relative to 1 μM WKYMVm
T4 construct: expressed in transfected cells
T4 sequence (P33766 1-364): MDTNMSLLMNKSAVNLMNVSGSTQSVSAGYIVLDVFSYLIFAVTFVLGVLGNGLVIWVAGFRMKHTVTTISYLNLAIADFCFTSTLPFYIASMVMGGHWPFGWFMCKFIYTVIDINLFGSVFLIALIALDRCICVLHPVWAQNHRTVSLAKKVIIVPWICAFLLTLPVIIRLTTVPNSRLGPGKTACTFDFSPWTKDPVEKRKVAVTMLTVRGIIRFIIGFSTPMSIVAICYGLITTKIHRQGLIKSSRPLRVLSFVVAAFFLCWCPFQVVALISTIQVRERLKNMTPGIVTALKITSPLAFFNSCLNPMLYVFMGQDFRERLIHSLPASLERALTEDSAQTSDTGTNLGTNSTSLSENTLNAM
In short: (§2)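 Surface FLAG-receptors labelled with Alexa Fluor-conjugated M1 anti-FLAG for 30 min at 37 °C, then exposed to ligand; surface antibody stripped with PBS/0.04% EDTA and internalised fluorescence read by flow cytometry (5000 events), constitutive endocytosis subtracted. Curves fitted by log(agonist) vs response, 3 parameters.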

Mm_Fpr2 [5] = target: T3, Mm_Fpr2; assay: as above; design: Emax: dose or concentration left out as unconfirmed; settings: for Emax (%), internalization, Mean: % of internalization to WKYMVm (1 mM in legend, 1 μM in text), Mm_Fpr2, 30 minutes; for Log EC50 (M), internalization, Mean: HEK293 stably expressing FLAG-Mm_Fpr2, ligand 30 minutes; for agonist-induced internalization (words): Mm_Fpr2, 30 min, relative to 1 μM WKYMVm
In short: as §2

[6] = Hs_FPR2-Rluc8 donor, Arrestin 3-YFP acceptor, read-out: EC50 arrestin recruitment, BRET

Row | Molecule | Log EC50 (M) (Hs_FPR2 [1]) | Emax (%) (Hs_FPR2 [1]) | Log EC50 (M) (Hs_FPR1) | Emax (%) (Hs_FPR1) | Log EC50 (M) (Hs_FPR2 [2]) | Emax (%) (Hs_FPR2 [2]) | Log EC50 (M) (Mm_Fpr2 [3]) | Emax (%) (Mm_Fpr2 [3]) | Emax (%) (Hs_FPR2 [4]) | EC50 (Hs_FPR2 [4]; [6]) [nM] | Log EC50 (M) (Hs_FPR2 [4]) | agonist-induced internalization (words) (Mm_Fpr1) | agonist-induced internalization (words) (Mm_Fpr2 [5]) | Emax (Hs_FPR2 [1]) [%] | Emax (Hs_FPR2 [2]) [%] | Emax (Mm_Fpr2 [3]) [%] | Emax (Hs_FPR2 [4]) [%] | Emax (Mm_Fpr2 [5]) [%] | Emax (Hs_FPR1) [%] | Emax (Mm_Fpr1) [%] | other results
1 | Cc1cccc(-c2oc(C)nc2C(=O)Nc2cnn(Cc3nc(C(C)(F)F)co3)n2)c1 [ACT-389949] | −7.80 | 69.25 | −7.37 | 112.1 | −7.723 | 81.57 | −8.394 | 136.1 | 73.56 | 18 | −7.74 | only at 10 μM | full agonist | – | – | – | – | – | – | – | Emax (%), internalization, Mean (Mm_Fpr2 [5]): 118.5%; Log EC50 (M), internalization, Mean (Mm_Fpr2 [5]): −6.539 M; fold less potency at Mm_Fpr2, internalization (Mm_Fpr2 [5]; equipotent to WKYMVm at Hs_FPR2): 28 fold
2 | COc1cc(F)c([C@@H]2CNC(=O)[C@H]2NC(=O)Nc2ccccc2)c(F)c1 [BMS-986235] | – | – | – | – | – | – | – | – | – | 39.9 | – | failed to show appreciable internalization; also recorded: unable to induce any measurable internalization | robust internalization | 64.4 | 116 | 116 | 85.1 | 88 | – | – | EC50 (Hs_FPR2 [1]): 75.9 nM; EC50 (Hs_FPR1): 16200 nM; EC50 (Hs_FPR2 [2]): 679 nM; EC50 (Mm_Fpr2 [3]): 3.78 nM; times more potent at Mm_Fpr2 than Hs_FPR2, internalization (Mm_Fpr2 [5]): 9 times; EC50 (Mm_Fpr2 [5]; read-out: Log EC50 (M), internalization, Mean (converted)): 1.03e-07 M
3 | CSCC[C@H](NC(=O)[C@H](Cc1ccc(O)cc1)NC(=O)[C@H](CCCCN)NC(=O)[C@@H](N)Cc1c[nH]c2ccccc12)C(=O)N[C@H](C(=O)N[C@H](CCSC)C(N)=O)C(C)C [WKYMVm] | – | – | – | – | – | – | – | – | – | – | – | – | – | 100 | 93.8 | 118 | 102 | 102 | 104 | 108 | –
4 | CCCCOc1ccc(C(=O)NN2C(=O)c3ccccc3NC2c2ccc(OC)cc2)cc1 (stereo not shown) [QuinC1] | −6.06 | 34.75 | −5.86 | 92.57 | −5.882 | 101.7 | −4.94 | 381.2 | 40.71 | – | −5.82 | partial agonists | partial agonists | – | – | – | – | – | – | – | Emax (%), internalization, Mean (Mm_Fpr1; % of internalization to WKYMVm (1 mM in legend, 1 μM in text), Mm_Fpr1, 30 minutes, ND denotes no internalization measured): 66.27%; Log EC50 (M), internalization, Mean (Mm_Fpr1; Log EC50, HEK293 stably expressing FLAG-Mm_Fpr1, ligand 30 minutes, ND denotes no internalization measured): −6.120 M; Emax (%), internalization, Mean (Mm_Fpr2 [5]): 41.84%; Log EC50 (M), internalization, Mean (Mm_Fpr2 [5]): −7.106 M
5 | CSCC[C@H](NC=O)C(=O)N[C@@H](CC(C)C)C(=O)N[C@@H](Cc1ccccc1)C(=O)N[C@@H](CCCCN)C(=O)O [fMLFK, fMet-Leu-Phe-Lys] (For-MLFK-OH) | – | – | – | – | – | – | – | – | – | – | – | – | – | 80.7 | 74.3 | 176 | 92.7 | 81.6 | 112 | 179 | EC50 (Hs_FPR2 [1]): 26900 nM; EC50 (Hs_FPR1): 6.85 nM; EC50 (Hs_FPR2 [2]): 1320 nM; EC50 (Mm_Fpr2 [3]): 1240 nM; EC50 (Hs_FPR2 [4]; read-out: Log EC50 (converted)): 36300 nM; EC50 (Mm_Fpr1): 6110 nM; EC50 (Mm_Fpr2 [5]): 1.16e-05 M
6 | LESIFRSLLFRVM [MMK1] | −7.17 | – | −6.84 | – | −8.646 | – | −6.482 | – | – | – | −7.03 | failed to show appreciable internalization | unable to induce internalization | 38.7 | 114 | 86.6 | 59.1 | 8.68 | 40.1 | 11.6 | agonist-induced internalization (words) (Mm_Fpr1; listed as MMK-1): unable to induce internalization
